Results published in patent publication US20070104743A1, “Formulations of fispemifene” (HORMOS MEDICAL LTD., priority 2005, published 2007).

Tests used:
[1] = Serum concentration of fispemifene in monkeys after administration in two different vehicles; assay type: in vivo; settings: two female Cynomolgus monkeys, single oral dose 500 mg/kg, LC-MS/MS
Experimental: Serum concentration of fispemifene in monkeys after administration of fispemifene in two different vehicles
A pilot study on exposure of fispemifene in two female Cynomolgus monkeys ( #05084 and #06170) was carried out. Fispemifene was administered by single oral dosing of 500 mg/kg in two different vehicles, 0.5% carboxymethyl cellulose in water (CMC), and in corn oil. Blood samples were collected 0, 1, 2, 4, 6, 8, 12, 16 and 24 hours after dosing. Concentrations of fispemifene were determined using LC-MS/MS.

Solubility in water = assay type: physicochemical

fispemifene quantifiable in serum samples after drug administration ([1]; CMC or corn oil vehicle, samples 1-24 h): quantifiable in all serum samples
serum fispemifene concentration, corn oil vehicle relative to 0.5% CMC in aqueous solution ([1]; corn oil vs 0.5% carboxymethyl cellulose in water, 0-24 h): more than 10 fold
solubility in water (Solubility in water): only sparingly soluble
Compound: OCCOCCOc1ccc(/C(=C(/CCCl)c2ccccc2)c2ccccc2)cc1 [Fispemifene, (Z)-2-{2-[4-(4-chloro-1,2-diphenylbut-1-enyl)phenoxy]ethoxy}ethanol]
